What was measured:
Assay type in all cases: cell-based, human
THP-1 cells [1] = experiment: Flow cytometry of HLA-DR, CD11c, CD14, CD40 on PMA-treated THP-1 cells
Procedure: FIG. 5 is a graph showing the effects of collagen-activation of two DDR1 isoforms on the expression of CD11c, CD14, and CD40. Each cell line was plated at 5×10^6 cells/ml on either uncoated or collagen-coated plates and incubated at 37° C. for 24 hours in the presence of 10 nM PMA. Anti-1β integrin antibody (10 μg/ml) was used to block the effect of 1β integrin-collagen interaction. The percentage of CD11c, CD14, or CD40-positive cells is shown. Data are presented as the mean ±SD from three independent experiments.
Parental, mock, DDR1a-overexpressing, or DDR1b overexpressing THP-1 cells were plated at 5×10^6 cells/ml on either uncoated or collagen-coated plates and incubated at 37° C. for 24 or 48 hours in the presence of 10 nM PMA. One hundred thousand cells were suspended in 50 μl of cold PBS containing 0.1% NaN3, […] BSA and 200 μg/ml human IgG in a Falcon 2052 tube, and incubated for 10 minutes on ice. One μg of mouse monoclonal antibody against CD11c, CD14 CD40, or HLA-DR, or control mouse IgG were added to each tube and the cells were incubated for another 15 minutes on ice. The cells were washed with PBS, and then incubated with 1 μg of FITC-conjugated goat anti-mouse IgG for 15 minutes on ice. At the end of incubation, propidium iodide (PI) (100 μM) was added to each tube. The cells were washed by PBS, and subsequently analyzed by using a FACS scan (Becton Dickinson). Dead cells, determined by the incorporation of PI, were gated out. Results were processed by using the Cellquest software (Becton Dickinson).
The cells were then rinsed three times with RPMI 1640 containing 10% FCS, and incubated either with the p38 MAP kinase inhibitor SB203580, the MEK (MAP or ERK kinase) ½ inhibitor PD98059, or dimethylsulfoxide (DMSO) for 30 minutes, followed by an additional 12 hour incubation in the presence of 10 nM PMA plus collagen. The expression of HLA-DR was analyzed by flow cytometry.

THP-1 cells [2] = experiment: Cytokine and chemokine release from PMA-treated THP-1 cells by ELISA; conditions: DDR1b-overexpressing THP-1 cells, PMA, collagen-coated plates, 48 hours
Procedure: The production of DDR1a- or 1b-overexpressing THP-1 cells was previously described (Kamohara et al., FASEB J. 15:2724, 2001). Briefly, the human monocytic leukemic cell line, THP-1, was transduced with control retrovirus containing the vector only (mock-transduced) or retrovirus expressing DDR1a or DDR1b. THP-1 cells transduced by each virus were selected with G418, and cloned by limiting dilution. The cloned THP-1 cells were maintained in RPMI 1640 medium supplemented with 100 μg/ml gentamycin and 10% FCS (complete medium). Cells were plated at 1×10^6/ml and treated with PMA (10 nM) for variable times on uncoated or collagen-coated tissue culture plates for quantification of cytokine or chemokine release.
In addition, the concentration of MCP-1 in the culture supernatant of each cell line was measured by ELISA. The concentration of MCP-1 was measured in the Lymphokine Testing Laboratory, Clinical Services Program, SAIC-Frederick (Frederick, Md.) by using an enzyme-linked immunosorbent assay (ELISA) kit (R&D Systems, Minneapolis, Minn.) specific for the chemokine.
In addition, the concentrations of IL-1β, IL-8, and MIP-1α in the culture supernatants of each cell line were quantified by ELISA (FIG. 6). The concentration of IL-1β, IL-8, and MIP-1α were measured in the Lymphokine Testing Laboratory, Clinical Services Program, SAIC-Frederick (Frederick, Md.) by using enzyme-linked immunosorbent assay (ELISA) kits (R&D Systems, Minneapolis, Minn.) specific for each human cytokine and chemokine. […]

p38 MAP kinase = experiment: Phosphorylation of p38 MAP kinase in PMA-treated THP-1 cells, Western blotting; conditions: DDR1b-overexpressing cells treated before PMA-treatment
Procedure: Parental, mock, DDR1a- or DDR1b-overexpressing THP-1 cells were plated at 5×10^6/ml on uncoated tissue culture plates and stimulated with PMA (10 nM) for 24 hours, and then starved in RMPI 1640 without FCS for 10 hours. Subsequently cells were washed three times with PBS, and then incubated in the presence of 50 μg/ml collagen type I for various times.
Ten million cells were lysed on ice for 20 minutes in a buffer containing 50 mM NaCl, 20 mM Tris-HCl, 50 mM sodium fluoride, 30 mM Na4P2O7, 5 mM EGTA, 3 mM sodium orthovanadate, 1% Triton X-100, 1 mg/ml leupeptin, 1 mM PMSF, 1 mg/ml aprotinin, 1 mg/ml pepstatinA and 100 μM sodium orthovanadate treated with H2O2. A lysis buffer containing 150 mM NaCl, 50 mM HEPES, 1% Triton-X 10% glycerol, 1 mM sodium fluoride, 1 mM EDTA, 2 mM sodium orthovanadate, 1 mg/ml leupeptin, 1 mM PMSF, 1 mg/ml aprotinin, 1 mg/ml pepstatinA and 100 μM sodium orthovanadate treated with H2O2, was also used for immunoprecipitation with anti-Shc Ab. The lysates were spun in a microcentrifuge for 20 minutes and the supernatants were collected. […]
Eluted proteins were analyzed on 8% polyacrylamide gels by SDS-PAGE and transferred electrophoretically to nitrocellulose membranes at 150 mA for 1 hour by a semi-dry system. […] To detect phosphorylated or nonphosphorylated p38 MAP kinase or ATF-2, 20 μl of cell lysates were directly mixed with 20 μl of sample buffer and then analyzed.
Downstream signaling molecules that may play a role in the up-regulation of HLA-DR in collagen-activated PMA-treated DDR1b-overexpressing cells were identified in the following manner. […] Phosphorylation of p38 MAP kinase was first detected 30 minutes after collagen activation of DDR1b-overexpressing cells and the level of phosphorylation increased thereafter. […] Phosphorylation of p38 MAP kinase was not detected in DDR1a-overexpressing cells up to 120 minutes. […] Phosphorylation of other members of the MAP kinase family, ERK1, ERK2, and JNK could not be detected in collagen-activated PMA-treated DDR1b-overexpressing cells. […]

DDR1 mRNA = DDR1 mRNA expression in PBMC by Northern blotting; conditions: 8 hours, TNF-α 5 ng/ml, IL-1β 10 ng/ml, IFN-γ 50 U/ml, GM-CSF 10 ng/ml, LPS 1 μg/ml, PHA 5 μg/ml
Procedure: PMN and PBMC were maintained at a density of 5×10^6 cells/ml in the complete medium in six-well tissue culture cluster (Coster, Cambridge, Mass.; 3 ml/well). Total RNA was extracted from each culture by using TRIZOL® Reagent. PolyA mRNA was purified on Oligotex columns (Qiagen, Valencia, Calif.). Northern blot analysis was performed as described (Yoshimura, J. Immunol. 150:5025, 1993), except that ULTRAhyb (Ambion) was used. A human DDR1 cDNA (757-bp) was obtained by PCR from a U-105 human glioblastoma cell line cDNA library and was ligated into the EcoRI/HindIII site of the pBluescript (Stratagene, La Jolla, Calif.). The sense primer was 5′-[…]-3′ (SEQ ID NO: 2; corresponding to residues between 68 and 87 in the nucleotide sequence of the trkE cDNA, GenBank accession number X74979) and the antisense primer was 5′-[…]-3′ (SEQ ID NO: 3; corresponding to residues between 805 and 824 in the nucleotide sequence of the trkE cDNA).
Freshly isolated PBMC expressed only a low level of DDR1 mRNA. The expression level was increased about eightfold when the cells were incubated in either RPMI 1640 or RPMI 1640 containing 10% FCS.

NF-κB [3] = experiment: Nuclear translocation of NF-κB by EMSA; conditions: DDR1b-overexpressing cells on collagen-coated plates
Procedure: Nuclear translocation of NF-κB was examined by EMSA. Nuclear extracts were prepared by a method previously reported (Ueda et al., J. Biol. Chem. 272:31092, 1997), and aliquots were frozen at −80° C. For EMSA, end-labeled ^32P-oligonucleotide probes corresponding to the NF-KB binding site of the Ig κ-chain (5′-[…]-3′) (SEQ ID NO: 15) or MCP-1 (A2 site; 5′-[…]-3′) (SEQ ID NO: 16) gene were used. Each probe was incubated with 5 μg of nuclear extracts in 20 μl of binding cocktail (50 mM Tris-HCl, pH 7.4, 25 MM MgCl2, 0.5 mM DTT, 50% glycerol) at 4° C. for 15 minutes. The DNA-protein complexes were resolved on a 5% polyacrylanide gel. The dried gels were exposed to X-ray films.

NF-κB [4] = experiment: NF-κB luciferase reporter assay in THP-1 cells; conditions: DDR1b-overexpressing cells, 12 hours
Procedure: For the results shown in FIG. 7A, mock-transduced or DDR1b-overexpressing THP-1 cells were transfected with 10 μg of the NF-κB-Luc plasmid and 5 μg of pSV-β-galactosidese plasmid DNA (Promega, Madison, Wis.) per 100-mm tissue culture plate using Effectene Transfection Reagent (Qiagen, Valencia, Calif.), according to the manufacture's protocol. After a 12-hour incubation, cells were rinsed with phosphate buffered saline (PBS) and then incubated with 10 nM PMA on collagen-coated plates in the presence of absence of SB203580, PD98059, CAPE or dimethlysulfoxide (DMSO) for another 12 hours. Cells were collected and lysed using the Reporter Lysis Buffer (Promega, Madison, Wis.), and luciferase activity and β-galactosidase activities were measured according to the protocol provided by the manufacturer. The resulting luciferase activity was corrected based on the β-galactosidase activity in the same cell extract. For the results shown in FIG. 7B, DDR1b-overexpressing THP-1 cells were transfected with 10 μg of the pGLM-ENH, or pGLM-MA1MA2 (Ueda et al., J. Bio. Chem. 272: 31092-9, 1997) and 5 μg of pSV-β-galactosidese plasmid DNA (Promega, Madison, Wis.) per 100-mm tissue culture plate using Effectene Transfection Reagent (Qiagen, Valencia, Calif.) according to the manufacture's protocol. […] Cells were collected and lysed using the Reporter Lysis Buffer (Promega, Madison, Wis.), and luciferase activity and β-galactosidase activities were measured according to the protocol provided by the manufacturer. […]
Mock-transduced or DDR1b-overexpressing THP-1 cells were transfected with 10 μg of the NF-κB-Luc plasmid, pGL-ENH, or pGL-MA1MA2 and 5 μg of pSV-β-galactosidase plasmid DNA (Promega, Madison, Wis.) per 100-mm tissue culture plate using Effectene Transfection Reagent (Qiagen, Valencia, Calif.) according to the manufacture's protocol. […] Luciferase activity and β-galactosidase activities were measured according to the protocol provided by the manufacturer. […]

CCCCCCCCCCCCCC(=O)O[C@@H]1[C@@H](C)[C@@]2(O)[C@@H](C=C(CO)C[C@]3(O)C(=O)C(C)=C[C@@H]23)[C@@H]2C(C)(C)[C@]12OC(C)=O [PMA, phorbol 12-myristate 13-acetate, reference compound]
HLA-DR-positive cells (THP-1 cells [1]; parental, mock, DDR1a- or DDR1b-overexpressing THP-1 cells, uncoated plates, 48 hours): 26 to 28%

COc1cccc(-c2cc(=O)c3ccccc3o2)c1N [PD98059]
expression of HLA-DR (THP-1 cells [1]; collagen-activated PMA-treated DDR1b-overexpressing cells, 24 hours): no effect | collagen-induced up-regulation of IL-1β release (THP-1 cells [2]): no effect | collagen-induced up-regulation of IL-8 release (THP-1 cells [2]): no effect | collagen-induced up-regulation of MCP-1 release (THP-1 cells [2]): no effect | collagen-induced up-regulation of MIP-1α release (THP-1 cells [2]): no effect

C[C@@H]1C[C@@H]([C@H](O)CC2CC(=O)NC(=O)C2)C(=O)[C@@H](C)C1 [CHX, cycloheximide, reference compound]
phosphorylation of p38 MAP kinase in response to collagen (p38 MAP kinase): completely inhibited

IL-1β: human recombinant interleukin-1β
level of DDR1 mRNA expression (DDR1 mRNA): further augmented

O=C(/C=C/c1ccc(O)c(O)c1)OCCc1ccccc1 [CAPE]
collagen-induced up-regulation of IL-8 release (THP-1 cells [2]): inhibited | collagen-induced up-regulation of MCP-1 release (THP-1 cells [2]): inhibited | collagen-induced up-regulation of MIP-1α release (THP-1 cells [2]): inhibited | increased NF-κB/DNA binding (NF-κB [3]): completely abolished | increase in luciferase activity induced by PMA plus collagen (NF-κB [4]): completely inhibited

Source: patent US7855076B2, “Use of discoidin domain receptor 1 (DDR1) and agents that affect the DDR1/collagen pathway” (The United States of America as represented by the …, priority 2002, dated 2010)
